Data from patent US20190307843A1, “SINGLE DOSE METHODS FOR PREVENTING AND TREATING FUNGAL INFECTIONS” (Cidara Therapeutics, Inc., priority 2016, published 2019).
≈ marks a conversion by molar mass, not a printed value. Read-outs that look alike come from different tables or passages of the source.

Test system: Candida auris strains
Experiment: Candida auris antifungal susceptibility testing (CLSI M27-A3), 38 strains
Type: cell-based
Conditions: for MIC: Candidozyma auris

OC(Cn1cncn1)(Cn1cncn1)c1ccc(F)cc1F [fluconazole]
MIC (24 h, strain 14 VCPI 1130/P/13, 24 h, read-out: MIC): 32 µg/mL (≈ 104 µM) | MIC (24 h, strain 15 VCPI 1132/P/13): 128 µg/mL (≈ 418 µM) | MIC (24 h, strain 16 VCPI 1133/P/13): > 128 µg/mL | MIC (24 h, strain 17 VCPI 105/P/14): 128 µg/mL (≈ 418 µM) | MIC (24 h, strain 18 VCPI 107/P/14, 24 h, read-out: MIC): 64 µg/mL (≈ 209 µM) | MIC (24 h, strain 19 VCPI 510/P/14): > 128 µg/mL | MIC (24 h, strain 20 VCPI 511/P/14): 128 µg/mL (≈ 418 µM) | MIC (24 h, strain 21 VCPI 512/P/14, 24 h, read-out: MIC): 16 µg/mL (≈ 52.2 µM) | MIC (24 h, strain 22 VCPI 513/P/14): > 128 µg/mL | MIC (24 h, strain 23 VCPI 514/P/14): > 128 µg/mL | MIC (24 h, strain 24 VCPI 250/P/14, 24 h, read-out: MIC): 64 µg/mL (≈ 209 µM) | MIC (24 h, strain 25 VCPI 265/P/14): > 128 µg/mL | MIC (24 h, strain 26 VCPI 266/P/14): > 128 µg/mL | MIC (24 h, strain 27 VCPI 462/P/14): > 128 µg/mL | MIC (24 h, strain 28 VCPI 463/P/14): > 128 µg/mL | MIC (24 h, strain 29 VCPI 467/P/14): > 128 µg/mL | MIC (24 h, strain 30 VCPI 471a/P/14): > 128 µg/mL | MIC (24 h, strain 31 VCPI 478/P/14): > 128 µg/mL | MIC (24 h, strain 32 VCPI 518/P/14): > 128 µg/mL | MIC (24 h, strain 33 VCPI 550/P/14): > 128 µg/mL | MIC (24 h, strain 34 VCPI 714/P/14): > 128 µg/mL | MIC (24 h, strain 35 VCPI 717/P/14, 24 h, read-out: MIC): 4 µg/mL (≈ 13.1 µM) | MIC (24 h, strain 36 VCPI 1060/P/14): > 128 µg/mL | MIC (24 h, strain 37 VCPI 74/P/15): > 128 µg/mL | MIC (24 h, strain 38 VCPI 213/P/15): > 128 µg/mL | MIC (48 h, strain 1 VPCI 669/P/12): > 128 µg/mL | MIC (48 h, strain 2 VCPI 671/P/12): > 128 µg/mL | MIC (48 h, strain 3 VCPI 674/P/12): 128 µg/mL (≈ 418 µM) | MIC (48 h, strain 4 VCPI 683/P/12): > 128 µg/mL | MIC (48 h, strain 5 VCPI 692/P/12): > 128 µg/mL | MIC (48 h, strain 6 VCPI 712/P/12): 128 µg/mL (≈ 418 µM) | MIC (48 h, strain 7 VCPI 471/P/13): > 128 µg/mL | MIC (48 h, strain 8 VCPI 475/P/13, 48 h, read-out: MIC): 64 µg/mL (≈ 209 µM) | MIC (48 h, strain 9 VCPI 478/P/13): 128 µg/mL (≈ 418 µM) | MIC (48 h, strain 10 VCPI 479/P/13): 128 µg/mL (≈ 418 µM) | MIC (48 h, strain 11 VCPI 480/P/13): > 128 µg/mL | MIC (48 h, strain 12 VCPI 482/P/13): > 128 µg/mL | MIC (48 h, strain 13 VCPI 483/P/13): 128 µg/mL (≈ 418 µM) | MIC (48 h, strain 14 VCPI 1130/P/13, 48 h, read-out: MIC): 64 µg/mL (≈ 209 µM) | MIC (48 h, strain 15 VCPI 1132/P/13): 128 µg/mL (≈ 418 µM) | MIC (48 h, strain 16 VCPI 1133/P/13): > 128 µg/mL | MIC (48 h, strain 17 VCPI 105/P/14): 128 µg/mL (≈ 418 µM) | MIC (48 h, strain 18 VCPI 107/P/14): > 128 µg/mL | MIC (48 h, strain 19 VCPI 510/P/14): > 128 µg/mL | MIC (48 h, strain 20 VCPI 511/P/14): > 128 µg/mL | MIC (48 h, strain 21 VCPI 512/P/14): > 128 µg/mL | MIC (48 h, strain 22 VCPI 513/P/14): > 128 µg/mL | MIC (48 h, strain 23 VCPI 514/P/14): > 128 µg/mL | MIC (48 h, strain 24 VCPI 250/P/14): > 128 µg/mL | MIC (48 h, strain 25 VCPI 265/P/14): > 128 µg/mL | MIC (48 h, strain 26 VCPI 266/P/14): > 128 µg/mL | MIC (48 h, strain 27 VCPI 462/P/14): > 128 µg/mL | MIC (48 h, strain 28 VCPI 463/P/14): > 128 µg/mL | MIC (48 h, strain 29 VCPI 467/P/14): > 128 µg/mL | MIC (48 h, strain 30 VCPI 471a/P/14): > 128 µg/mL | MIC (48 h, strain 31 VCPI 478/P/14): > 128 µg/mL | MIC (48 h, strain 32 VCPI 518/P/14): > 128 µg/mL | MIC (48 h, strain 33 VCPI 550/P/14): > 128 µg/mL | MIC (48 h, strain 34 VCPI 714/P/14): > 128 µg/mL | MIC (48 h, strain 35 VCPI 717/P/14): > 128 µg/mL | MIC (48 h, strain 36 VCPI 1060/P/14): > 128 µg/mL | MIC (48 h, strain 37 VCPI 74/P/15): > 128 µg/mL | MIC (48 h, strain 38 VCPI 213/P/15): > 128 µg/mL | number of resistant isolates (of 38 C. auris isolates): 38
